Test results from US20250127857A1, “A COMPOSITION COMPRISING IL-36 AND/OR IL-18 FOR USE IN TREATING OCULAR DISORDERS” (THE PROVOST, FELLOWS, FOUNDATION SCHOLARS, & THE OTHER …, priority 2021, published 2025).

B1: IL-1α: human IL-1α (R&D systems) (protein, UniProt P01583 113-271, looked up)
Interleukin-1 alpha: SAPFSFLSNVKYNFMRIIKYEFILNDALNQSIIRANDQYLTAAALHNLDEAVKFDMGAYKSSKDDAKITVILRISKTQLYVTAQDEDQPVLLKEMPEIPKTITGSETNLLFFWETHGTKNYFTSVAHPNLFIATKQDYWVCLAGGPPSITDFQILENQA

How the values were obtained:
[1] = tested on: cldn5, tricellulin, ZO-1 and VE-cadherin mRNA in HRMEC; test: Real-time qPCR of junction components; type: cell-based, human; details: 100 ng/ml IL-36β or 10 μM RepSox, 24 hours
From the text: […]

[2] = tested on: HRMEC; test: Wound healing (scratch) assay in HRMEC, IL-18; type: cell-based, human; details: IL-18, VEGF, bFGF each 50 ng/ml, closure expressed as % closure
Description: FIG. 16 illustrates HRMEC migration in response to IL-18 and IL-1α stimulation, wherein confluent HRMEC monolayers were scratched with a pipette tip and treated with IL-18 (50 ng/ml) or IL-1α (10 ng/ml) along with bFGF (50 ng/ml) or VEGF (50 ng/ml) as positive controls, wherein images were taken immediately following scratch (0 hrs) and at 4, 8 and 24 hours following scratch, wherein images were analysed using ImageJ imaging software, wherein data are presented as mean±SEM of 6 separate experiments in triplicate, wherein data were analysed using 2way ANOVA with Dunnett's multiple comparison test. (*p<0.05, *p<0.01, ****p<0.0001);
Cells were seeded on to a 12-well plate and grown until they reached confluency. 24 hours prior to the scratch, culture medium was replaced with 0.5% Serum media without supplements for 24 hours to induce cell quiescence. Cell monolayers were scratched once down the centre of the well using a p200 pipette tip and washed once with warmed DPBS to remove debris then replaced with 0.5% serum supplemented media with experimental treatments. Images were acquired using an Olympus IX51 inverted microscope with Cell^A imaging software (Olympus). Images were taken at baseline immediately following scratch and at suitable timepoints for up to 24 (HRMECs) or 48 hours (BMVECs). The area within the scratch was quantified using ImageJ software, and each timepoint was normalised to its baseline and expressed as % closure.

[3] = tested on: HRMEC; test: MTS assay of HRMEC proliferation with VEGF and IL-18; type: cell-based, human; details: VEGF alone
Description: FIG. 17 illustrates HRMEC proliferation in response to VEGF is enhanced with IL-18 pre-treatment, wherein HRMECs were treated with increasing concentrations of VEGF alone or with a 24 hour pre-treatment of IL-18 at 10, 100 or 1000 ng/ml, wherein increasing VEGF induced an increase in cell proliferation which was enhanced following IL-18 treatment;
Cell viability was assessed using the CellTiter 96 AQueous One Solution cell proliferation MTS assay (Promega) as per the manufacturer's instructions. Cell monolayers were treated for times indicated where treatment supplemented media was then removed and incubated with 20 μl of CellTiter 96 AQueous One Solution in 100 μl of complete growth medium in a humidified incubator at 37° C. with 5% CO2for 1-4 hours. The absorbance of each well was measured at 490 nm using a SynergyMX plate reader (Biotek, Gen5™).

[4] = tested on: occludin; test: Occludin expression in HRMEC (qPCR and immunoblotting); type: cell-based, human; details: for expression of tight junction protein occludin: single cytokine
Description: FIG. 18 illustrates IL-18 drives expression of tight junction protein occludin and inhibits VEGF depletion of occluding, wherein HRMECS were treated with either VEGF, IL-18 or IL-1α for the timepoints indicated (top panel) and cells were prepared for RNA isolation and qPCR with expression of occluding measured, wherein HRMECs were treated with VEGF, IL-18 or IL-1 or combinations of these cytokines and cells were prepared for immunoblotting for expression of occludin and b-actin (lower panels);
Following transfer, membranes were blocked by incubating in 5% non-fat dried milk (Marvel) in TBS-T for 1 hour at room temperature whilst shaking. Membranes were incubated with primary antibody diluted in either 5% Marvel or BSA, depending on antibody specification, overnight at 4° C. with gentle agitation. Primary antibody was recovered and stored at −20. Membranes were washed three times in TBS-T for 5 minutes and membranes were incubated with secondary antibody, diluted in 5% Marvel, for 1 hour at room temperature. Secondary antibody was removed and discarded, and excess secondary was removed from the membranes by three 5-minute washes in TBS-T.
All RT-PCR assays were carried out using the SensiFAST SYBR Hi-ROX Kit (Bioline) with primers designed using Primer-BLAST (NCBI). For each target a master-mix comprising of 4 μl SYBR Green mix, 0.5 μl of Forward primer (4 μM) and 0.5 μl of Reverse primer (4 μM) along and 3 μl of RNAse free H2O was prepared and mixed thoroughly by vortexing. 8 μl of master-mix was added to each well of a 0.1 mL MicroAMP® Fast 96-well Reaction Plate (Applied Biosystems), along with 2 μl of cDNA and sealed using Optical adhesive film (Applied Biosystems) and spun down for 30 seconds in a centrifuge fitted with microplate rotor (Eppendorf) before running. Plate were run using a QuantStudio 3 real-time PCR System (Applied Biosystems) or the StepOnePlus Real-Time PCR System (Applied Biosystems), with run conditions set as: 50° C. for 2 mins, 95° C. for 10 minutes, 40 cycles of 95° C. for 15 seconds then 60° C. for 1 minute. To assess the quality of Primers a melt-curve stage was added: 95° C. for 1 second, 60° C. for 20 seconds, 95° C. for 1 second. Data were analysed using the QuantStudio™ Design & Analysis software (Applied Biosystems) and using the comparative Ct (ΔΔCt) method where test samples were normalised to endogenous control (β-Actin) followed by normalising the ΔCt of test samples to sample control (untreated sample), then calculating 2^−ΔΔCt to find the relative fold change of test samples over sample control.

[5] = tested on: IL-36R; details: HRMEC, VEGF treatment over timepoints

Row | Molecule | ZO-1 transcript (qPCR) [1] | mean difference in wound closure vs no treatment (xdiff) ([2]; 8 hours post scratch) | mean difference in wound closure vs no treatment (xdiff) ([2]; 24 hours post scratch) | HRMEC proliferation with increasing doses of VEGF [3] | expression of tight junction protein occludin [4] | IL-36R expression [5] | rescue of VEGF mediated occludin inhibition ([4]; combination with VEGF, immunoblotting)
1 | Cc1cccc(-c2[nH]ncc2-c2ccc3ncccc3n2)n1 [RepSox] | appeared unaffected |  |  |  |  |  | 
2 | FGF: bFGF (50 ng/ml) used as positive control in scratch assay |  | −4.366 | −28.4 |  |  |  | 
3 | VEGF |  | −9.35 | −12.25 | increase in proliferation up to 5 ng/ml | reduced expression of occludin | reduces IL-36R expression | 
4 | B1 |  |  |  |  | reduced expression of occludin |  | does not rescue VEGF mediated occludin inhibition
